81 compounds from the METLIN SMRT retention time set (Domingo-Almenara et al. 2019) can be followed below.

This series can be described thus: gradient 5% acetonitrile 3 min, to 50% in 2 min, to 85% in 15 min, held 3 min, 100 µL/min. Conditions: column: Zorbax Extend-C18 2.1 x 50 mm; eluents: water / acetonitrile, 0.1% formic acid. The essentials: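 Values are retention times taken from adduct peaks that software picked and an analyst inspected. The pure standards were run as mixtures of ~100 molecules on HPLC linked to a quadrupole time-of-flight mass spectrometer, in positive and negative ionization mode. A Zorbax Extend-C18 column (2.1 × 50 mm, 1.8 μm) was used at 100 μL/min with water and acetonitrile, each including 0.1% formic acid.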
`O=C(NCCc1ccccc1)Nc1ccc(-c2nc(-c3ccccc3)co2)cc1` gave an RP-LC retention time of 1080 s. On to `COc1ccc(NC(=O)C2CCCN(c3nc4c(s3)c(C)nn4-c3ccccc3)C2)cc1Cl` (stereo unspecified), for which the RP-LC retention time is 1190 s. The figure for `COc1ccc(C2NC(c3ccc(OC)c(OC)c3)C(C)C(=O)C2C)cc1OC` (stereo unspecified) is 755 s; for `COc1ccc(Nc2c(-c3ccc(N(C)C)cc3)nc3ncccn23)cc1` it is 684 s; for `O=C(NCc1cccnc1)c1ccc(-c2cccs2)nc1` it is 586 s. `Cn1c(=O)n(CCCC#N)c2cncnc21` yielded an RP-LC retention time of 550 s.

For the compound `CN(C)c1ccc(N2C=C(C(=O)N3CCOCC3)S(=O)(=O)c3ccc(Cl)cc32)cc1`, the RP-LC retention time was determined as 875 s. In turn, `CN(C1CCc2nn(CC3CC3)c(=O)n2CC1)S(=O)(=O)c1ccccc1F` (stereo unspecified) yielded an RP-LC retention time of 706 s. The compound `O=C(Nc1ccccc1Cl)C(=O)c1cn(CC(=O)N2CCOCC2)c2ccccc12` gave an RP-LC retention time of 1040 s. The figure for `Cc1nnsc1C(=O)Nc1nnc(SCc2ccc(Cl)c(Cl)c2)s1` is 1020 s. `Cc1cccc(-c2nnc(-c3cc(S(=O)(=O)N4CCOCC4)ccc3F)o2)c1` returned an RP-LC retention time of 961 s.

`O=C(Cn1ccnc1-c1ccnc(N2CCCC2)c1)NC1CCCCC1` returned an RP-LC retention time of 595 s.

Take `Cc1noc(C)c1C1CCCN1C(=O)Nc1ccccc1C(F)(F)F` (stereo unspecified): the RP-LC retention time was 879 s.

`COc1ccc(-c2nc(-c3ccc4c(c3)nc(C)c(=O)n4C(C)C)no2)cc1` came in with an RP-LC retention time of 1160 s.

Regarding `CCc1cccc(NC(=O)CN2C(=O)CCCc3cc(S(=O)(=O)N4CCCC4)ccc32)c1`, the RP-LC retention time worked out at 916 s.

For the compound `CCc1nn2c(CNC(=O)c3cccc(C)c3)c(-c3ccccc3)nc2s1`, the RP-LC retention time amounted to 936 s. The figure for `CCOC(=O)c1cccc(Nc2c(-c3ccc(OC)c(OC)c3)nc3cnccn23)c1` is 811 s; for `Cc1oc2ccn(Cc3cccc(F)c3)c(=O)c2c1C(=O)NCc1ccc(F)cc1F` it is 954 s; for `CC(NC(=O)CN1C(=O)C2CCCCN2c2ccc(S(=O)(=O)N(C)C)cc21)c1ccccc1` (stereo unspecified) it is 902 s. Turning to `O=C(NC1CC1)c1ccc(OCC2CCCN2C(=O)c2cc(F)ccc2F)cc1` (stereo unspecified), the RP-LC retention time turned out to be 785 s.

`CCN1CCN(CCNC(=O)c2cc(-c3ccc(Cl)cc3)cn2C)CC1` displayed an RP-LC retention time of 644 s.

`NC(=O)c1ccsc1NC(=O)c1c(F)cccc1Cl` had an RP-LC retention time of 706 s. The value for `NC(=O)C1CCN(C(=O)c2ccc(Cl)c(Cl)c2)CC1` was 656 s; that for `C=C1C(=O)OC2C1CCC(C)C1(O)C=CC(=O)C21C` (stereo unspecified) was 722 s.

Compound `CC(C)N1C[C@H](Oc2ccccc2)[C@@H]1C1CCN(S(=O)(=O)c2cccnc2)CC1` gave an RP-LC retention time of 669 s. The value for `N#Cc1ccc(C(=O)NC2CCN(c3ccccc3)C2=O)cc1` (stereo unspecified) was 742 s; that for `COc1ccc(-c2noc(-c3cccnc3N3CCN(c4ccccc4F)CC3)n2)cc1` was 1370 s. The value for `O=C(NCCc1ccncc1)C1CN(C(=O)c2ccncc2)CC12CCCCC2` (stereo unspecified) was 551 s; that for `Cc1ccc(NC(=O)Nc2c(Cl)cccc2Cl)cn1` was 905 s. The compound `CCOc1ccccc1C(=O)NCCS(=O)(=O)N1CCN(c2ccccn2)CC1` displayed an RP-LC retention time of 597 s.

For the compound `Cc1cc(N2CCN(c3ccccc3)CC2)n2nc(-c3cccnc3)nc2n1`, the RP-LC retention time stood at 863 s. In turn, `Cc1ccc(Cl)cc1NC(=O)Cn1nc2c3cc(Cl)ccc3ncn2c1=O` returned an RP-LC retention time of 770 s. In turn, `O=C(NCc1ccccc1F)c1c(O)c2cccnc2n(-c2cccc(F)c2)c1=O` displayed an RP-LC retention time of 1170 s. The value for `O=C(NC1CC1)c1ccc(OCC2CCN(C(=O)Cc3ccccc3Cl)CC2)cc1` was 868 s.

Compound `CCc1ccc(NC(=O)Cn2c(N3CCOCC3)nc(CC)cc2=O)cc1` showed an RP-LC retention time of 747 s.

Consider `Cc1ccccc1CN1N=C(C(=O)N2CCOCC2)S(=O)(=O)c2ccccc21`, for which the RP-LC retention time is 826 s. For the compound `COc1ccc(CNC(=O)c2cn(-c3cc(N4CCCC(C)C4)ncn3)cn2)cc1` (stereo unspecified), the RP-LC retention time was determined as 974 s. The figure for `Cn1c(C2CCN(C(=O)NCCc3ccccc3)CC2)cc(=O)n2nccc12` is 619 s. As to `Cc1ccc(CCNC(=O)C2CCCN(c3ncnc4c3nc3n4CCCCC3)C2)cc1` (stereo unspecified), the RP-LC retention time worked out at 897 s. `CCCn1c2ccccc2c2cnn(CC(=O)NCCN3CC(C)CC(C)C3)c(=O)c21` (stereo unspecified) showed an RP-LC retention time of 701 s.

In turn, `CC(C)n1c(N2CCCN(C(=O)c3cccnc3)CC2)cc(=O)n(C(C)C)c1=O` registered an RP-LC retention time of 668 s. The value for `Cc1cccc(C(=O)Nc2nc(-c3ccc4c(c3)NC(=O)C(C)O4)cs2)c1` (stereo unspecified) was 962 s.

`OCCNCCNCc1ccc(-c2ccccc2F)o1` returned an RP-LC retention time of 563 s. The figure for `CCOc1cc(=O)n2c(c1C(=O)Nc1cc(Cl)ccc1F)CCCC2` is 806 s.

Regarding `COc1ccc(C)cc1NC(=O)N1CCC2(CC1)NC(=O)c1ccc(Cl)cc1N2C`, the RP-LC retention time is 884 s. The value for `Cc1ccc2nc(NC(=O)CSc3nnc(C4COc5ccccc5O4)o3)sc2c1` (stereo unspecified) was 866 s; that for `Cc1cc(C(=O)N2CC(c3nc(-c4ccccn4)no3)C2)no1` was 639 s. The figure for `CC(C)N1CCCn2cc(S(=O)(=O)Nc3ccc(Oc4ccccc4)cc3)cc2C1=O` is 909 s; for `COc1ccc(CNC(=O)Nc2cc3c(cc2N2CCOCC2)n(C)c(=O)n3C)cc1` it is 694 s. `O=C(c1ccc(-c2ccsc2)nc1)N1CCN(c2ccccn2)CC1` came in with an RP-LC retention time of 604 s.

In the case of `CCCN1C(=O)COc2cc(-c3noc(C(=O)NCC(C)c4ccccc4)n3)ccc21` (stereo unspecified), the RP-LC retention time was determined as 793 s.

Take `O=c1[nH]nc(SC(F)(F)C(F)(F)C(F)(F)F)c(=O)[nH]1`: the RP-LC retention time is 709 s. The compound `CCc1nn(CC)c(=O)c2cc(S(=O)(=O)NCc3ccc(Cl)cc3)cn12` displayed an RP-LC retention time of 989 s. The value for `COc1ccccc1C(=O)Nc1c(-c2ccc(F)cc2)nc2ccccn12` was 676 s. The value for `Cc1nnc(CNC(=O)OC(C)(C)C)n1-c1ccccc1` was 624 s; that for `O=C(c1nc2ccccc2nc1Cl)N1CCN(c2ccccn2)CC1` was 597 s; that for `COc1cccc(-c2ccc(=O)n(Cc3nc(-c4cccc(Br)c4)no3)n2)c1` was 1110 s. The figure for `CCc1ccc(-c2csc(Nc3cc(C)ccn3)n2)cc1` is 1040 s.

As for `COc1ccc(CNC(=O)c2cnc(OC)nc2)c(OC)c1`, the RP-LC retention time is 715 s.

Compound `CCOC(=O)c1ccc(Nc2ncnc3c2cnn3C)cc1` gave an RP-LC retention time of 817 s. Consider `CCC(C(=O)NCc1ccc2c(c1)ncn2CC)c1ccccc1` (stereo unspecified), for which the RP-LC retention time was 660 s.

`CS(=O)(=O)Nc1ccc(C2(C(=O)NCc3ccccc3Cl)CCCCC2)cc1` came in with an RP-LC retention time of 946 s.

Compound `Cc1cc(OCC(=O)N(C)c2ccccc2)nc(N2CCN(c3ccccc3)CC2)n1` displayed an RP-LC retention time of 859 s. With `Cc1cc(C)cc(Nc2nc(C)cc3nn(CC(=O)NC4CCCC4)c(=O)n23)c1`, the RP-LC retention time is 998 s. The figure for `CCn1nc(C)cc1C(=O)Nc1nc(-c2cccs2)cs1` is 903 s; for `CN(C)c1ccc(C(=O)NC2CCN(c3cc(-c4ccc(Cl)cc4)[nH]n3)C2)cc1` (stereo unspecified) it is 790 s; for `CC(=O)N1CCc2sc(S(=O)(=O)N3CCN(c4cccc(Cl)c4)CC3)cc2C1` it is 957 s.

`Cc1noc(-c2ccnc(-n3cnc(C(=O)NC4CCCCC4)c3)c2)n1` registered an RP-LC retention time of 776 s.

Turning to `Cc1nccn1C1CN(C(=O)C2CCCCC2)C1`, the RP-LC retention time worked out at 572 s. The figure for `CCCNC(=O)Cc1cn2cc(Br)ccc2n1` is 570 s; for `Cc1ccc(N2CC(C(=O)N3CCCC3c3nc(-c4cccc(C)c4)no3)CC2=O)cc1` (stereo unspecified) it is 984 s. The value for `COc1ccc(Cl)cc1S(=O)(=O)N1CCC(C(N)=O)CC1` was 660 s; that for `O=C(NCCCN1CCOCC1)c1c(O)c2cccc3c2n(c1=O)CC3` was 845 s.

On to `Cc1cccc(NC(=O)N2[C@H]3CC[C@@H]2c2cnc(C)nc2C3)c1`, for which the RP-LC retention time was found to be 663 s.

Regarding `Cc1oc(-c2ccc(C(=O)NCCN3CCN(C)CC3)cc2)nc1CSc1ccccc1`, the RP-LC retention time is 661 s.

With `CSc1cccc(NC(=O)Nc2ccccc2C(N)=O)c1`, the RP-LC retention time was 856 s.

In the case of `Cc1cccc(N2CCN(S(=O)(=O)c3ccc4c(c3)CCCC(=O)N4)CC2C)c1` (stereo unspecified), the RP-LC retention time was 881 s.

Take `Cc1nn(CC(=O)NC2CCCCCC2)c(=O)c2c(-n3cccc3)n(-c3cccc(F)c3)nc12`: the RP-LC retention time was found to be 1090 s. In the case of `Cc1ccc(CN2CCN(CC(=O)N3CCN(c4ccccn4)CC3)C(=O)C2=O)cc1`, the RP-LC retention time was determined as 586 s. The figure for `CCC(C)NC(=O)c1cc(=O)[nH]c2c(C)cccc12` (stereo unspecified) is 661 s; for `Cc1nc(C)c(-c2nnc(NC(=O)c3cc(=O)c4ccccc4o3)o2)s1` it is 653 s.
